Assay results reported in ChEMBL document CHEMBL4118194, “Molecular modeling, synthesis, antibacterial and cytotoxicity evaluation of sulfonamide derivatives of benzimidazole, indazole, benzothiazole and thiazole” (Bioorg Med Chem, 2018).
Converted amounts (≈) assume the structure as drawn.

Legend:
Bacillus cereus [1] = test: Antibacterial activity against Bacillus cereus NCIM 2156 after 24 hrs by broth micro dilution method; type: functional; conditions: NCIM 2156, 24 h
Staphylococcus aureus [2] = test: Antibacterial activity against Staphylococcus aureus NCIM 2079 after 24 hrs by broth micro dilution method; type: functional; conditions: NCIM 2079, 24 h
Escherichia coli [3] = test: Antibacterial activity against wild type Escherichia coli NCIM 2065 after 24 hrs by broth micro dilution method; type: functional; conditions: NCIM 2065, 24 h
Pseudomonas aeruginosa [4] = test: Antibacterial activity against Pseudomonas aeruginosa NCIM 2036 after 24 hrs by broth micro dilution method; type: functional; conditions: NCIM 2036, 24 h
Escherichia coli [5] = test: Antibacterial activity against Escherichia coli U-621 mutant after 24 hrs by broth micro dilution method; type: functional; conditions: U-621, 24 h
PBMC = test: Cytotoxicity against human PBMC assessed as decrease in cell viability after 5 days by MTT assay; type: cell-based; conditions: 120 h
CCRF-CEM = test: Cytotoxicity against human CEM cells assessed as decrease in cell viability after 5 days by MTT assay; type: cell-based; conditions: 120 h
Vero = test: Cytotoxicity against African green monkey Vero cells assessed as decrease in cell viability after 3 days by MTT assay; type: cell-based; conditions: Chlorocebus sabaeus, 72 h
Escherichia coli [6] = test: Potency index, ratio of sulfamethoxazole MIC to compound MIC for Escherichia coli U-621 mutant; type: functional
Escherichia coli [7] = test: Potency index, ratio of […] MIC to compound MIC for Escherichia coli U-621 mutant; type: functional
Pseudomonas aeruginosa [8] = test: Synergistic antibacterial activity against Pseudomonas aeruginosa NCIM 2036 at 0.37 to 50 ug/ml after 24 hrs in presence of […] sulfamethoxazole by broth micro dilution method; type: functional; conditions: NCIM 2036, 24 h
Pseudomonas aeruginosa [9] = test: Synergistic antibacterial activity against Pseudomonas aeruginosa NCIM 2036 assessed as fractional inhibitory concentration at 0.37 to 50 ug/ml after 24 hrs in presence of […] sulfamethoxazole by broth micro dilution method; type: functional
Escherichia coli [10] = test: Synergistic antibacterial activity against wild type Escherichia coli NCIM 2065 at 0.5 times MIC after 24 hrs in presence of 0.0976 to […] chloramphenicol by broth micro dilution method; type: functional; conditions: NCIM 2065, 24 h
Pseudomonas aeruginosa [11] = test: Synergistic antibacterial activity against Pseudomonas aeruginosa NCIM 2036 at 0.5 times MIC after 24 hrs in presence of 0.0976 to […] chloramphenicol by broth micro dilution method; type: functional; conditions: NCIM 2036, 24 h
Escherichia coli [12] = test: Synergistic antibacterial activity against wild type Escherichia coli NCIM 2065 assessed as fractional inhibitory concentration at 0.5 times MIC after 24 hrs in presence of 0.0976 to […] chloramphenicol by broth micro dilution method; type: functional
Pseudomonas aeruginosa [13] = test: Synergistic antibacterial activity against Pseudomonas aeruginosa NCIM 2036 assessed as fractional inhibitory concentration at 0.5 times MIC after 24 hrs in presence of 0.0976 to […] chloramphenicol by broth micro dilution method; type: functional
Escherichia coli [14] = test: Synergistic antibacterial activity against wild type Escherichia coli NCIM 2065 at 0.5 times MIC after 24 hrs in presence of 0.0976 to […] sulfamethoxazole by broth micro dilution method; type: functional; conditions: NCIM 2065, 24 h
Escherichia coli [15] = test: Synergistic antibacterial activity against wild type Escherichia coli NCIM 2065 assessed as fractional inhibitory concentration at 0.5 times MIC after 24 hrs in presence of 0.0976 to […] sulfamethoxazole by broth micro dilution method; type: functional
Pseudomonas aeruginosa [16] = test: Synergistic antibacterial activity against Pseudomonas aeruginosa NCIM 2036 at 0.5 times MIC after 24 hrs in presence of 0.0976 to […] chloramphenicol by broth micro dilution method relative to compound alone; type: functional
Escherichia coli [17] = test: Potency index, ratio of chloramphenicol MIC to compound MIC for wild type Escherichia coli NCIM 2065; type: functional
Pseudomonas aeruginosa [18] = test: Potency index, ratio of chloramphenicol MIC to compound MIC for Pseudomonas aeruginosa NCIM 2036; type: functional
Pseudomonas aeruginosa [19] = test: Synergistic antibacterial activity against Pseudomonas aeruginosa NCIM 2036 at 0.5 times MIC after 24 hrs in presence of 0.0976 to […] sulfamethoxazole by broth micro dilution method; type: functional; conditions: NCIM 2036, 24 h
Pseudomonas aeruginosa [20] = test: Synergistic antibacterial activity against Pseudomonas aeruginosa NCIM 2036 assessed as fractional inhibitory concentration at 0.5 times MIC after 24 hrs in presence of 0.0976 to […] sulfamethoxazole by broth micro dilution method; type: functional
Bacillus cereus [21] = test: Synergistic antibacterial activity against Bacillus cereus NCIM 2156 at 0.37 to 50 ug/ml after 24 hrs in presence of […] chloramphenicol by broth micro dilution method; type: functional; conditions: NCIM 2156, 24 h
Staphylococcus aureus [22] = test: Synergistic antibacterial activity against Staphylococcus aureus NCIM 2079 at 0.37 to 50 ug/ml after 24 hrs in presence of […] chloramphenicol by broth micro dilution method; type: functional; conditions: NCIM 2079, 24 h
Pseudomonas aeruginosa [23] = test: Synergistic antibacterial activity against Pseudomonas aeruginosa NCIM 2036 at 0.37 to 50 ug/ml after 24 hrs in presence of […] chloramphenicol by broth micro dilution method; type: functional; conditions: NCIM 2036, 24 h
Bacillus cereus [24] = test: Synergistic antibacterial activity against Bacillus cereus NCIM 2156 assessed as fractional inhibitory concentration at 0.37 to 50 ug/ml after 24 hrs in presence of […] chloramphenicol by broth micro dilution method; type: functional
Staphylococcus aureus [25] = test: Synergistic antibacterial activity against Staphylococcus aureus NCIM 2079 assessed as fractional inhibitory concentration at 0.37 to 50 ug/ml after 24 hrs in presence of […] chloramphenicol by broth micro dilution method; type: functional
Pseudomonas aeruginosa [26] = test: Synergistic antibacterial activity against Pseudomonas aeruginosa NCIM 2036 assessed as fractional inhibitory concentration at 0.37 to 50 ug/ml after 24 hrs in presence of […] chloramphenicol by broth micro dilution method; type: functional
Bacillus cereus [27] = test: Synergistic antibacterial activity against Bacillus cereus NCIM 2156 at 0.37 to 50 ug/ml after 24 hrs in presence of […] sulfamethoxazole by broth micro dilution method; type: functional; conditions: NCIM 2156, 24 h
Staphylococcus aureus [28] = test: Synergistic antibacterial activity against Staphylococcus aureus NCIM 2079 at 0.37 to 50 ug/ml after 24 hrs in presence of […] sulfamethoxazole by broth micro dilution method; type: functional; conditions: NCIM 2079, 24 h
Bacillus cereus [29] = test: Synergistic antibacterial activity against Bacillus cereus NCIM 2156 assessed as fractional inhibitory concentration at 0.37 to 50 ug/ml after 24 hrs in presence of […] sulfamethoxazole by broth micro dilution method; type: functional
Staphylococcus aureus [30] = test: Synergistic antibacterial activity against Staphylococcus aureus NCIM 2079 assessed as fractional inhibitory concentration at 0.37 to 50 ug/ml after 24 hrs in presence of […] sulfamethoxazole by broth micro dilution method; type: functional
Escherichia coli [31] = test: Potency index, ratio of sulfamethoxazole MIC to compound MIC for wild type Escherichia coli NCIM 2065; type: functional
Escherichia coli [32] = test: Synergistic antibacterial activity against wild type Escherichia coli NCIM 2065 at 0.37 to 50 ug/ml after 24 hrs in presence of […] sulfamethoxazole by broth micro dilution method; type: functional; conditions: NCIM 2065, 24 h
Escherichia coli [33] = test: Synergistic antibacterial activity against wild type Escherichia coli NCIM 2065 assessed as fractional inhibitory concentration at 0.37 to 50 ug/ml after 24 hrs in presence of […] sulfamethoxazole by broth micro dilution method; type: functional

O=S(=O)(Nc1nccs1)c1ccc(Cl)cc1
MIC (Bacillus cereus [1]): 3.1 µg/mL (≈ 11.3 µM)
MIC (Staphylococcus aureus [2]): 6.2 µg/mL (≈ 22.6 µM)
MIC (Escherichia coli [3]): 3.1 µg/mL (≈ 11.3 µM)
MIC (Pseudomonas aeruginosa [4]): 6.2 µg/mL (≈ 22.6 µM)
MIC (Escherichia coli [5]): 25 µg/mL (≈ 91 µM)
IC50 (PBMC): > 100 µM
IC50 (CCRF-CEM): > 100 µM
IC50 (Vero): 6.2 µM
Ratio (Escherichia coli [6]): 4
Ratio (Escherichia coli [7]): 4
MIC (Pseudomonas aeruginosa [8]): 1.5 µg/mL
FIC (Pseudomonas aeruginosa [9]): 0.24
MIC (Escherichia coli [10]): 0.195 µg/mL
MIC (Pseudomonas aeruginosa [11]): 0.195 µg/mL
FIC (Escherichia coli [12]): 0.06
FIC (Pseudomonas aeruginosa [13]): 0.03
MIC (Escherichia coli [14]): 0.195 µg/mL
FIC (Escherichia coli [15]): 0.06
fold change (FC) (Pseudomonas aeruginosa [16]): 32

O=[N+]([O-])c1ccc(S(=O)(=O)n2ncc3cc([N+](=O)[O-])ccc32)cc1
MIC (Bacillus cereus [1]): 6.2 µg/mL (≈ 17.8 µM)
MIC (Staphylococcus aureus [2]): 6.2 µg/mL (≈ 17.8 µM)
MIC (Escherichia coli [3]): 3.1 µg/mL (≈ 8.9 µM)
MIC (Pseudomonas aeruginosa [4]): 3.1 µg/mL (≈ 8.9 µM)
MIC (Escherichia coli [5]): 12.5 µg/mL (≈ 35.9 µM)
Ratio (Escherichia coli [17]): 2
Ratio (Pseudomonas aeruginosa [18]): 2
Ratio (Escherichia coli [6]): 4
Ratio (Escherichia coli [7]): 4
MIC (Escherichia coli [10]): 0.195 µg/mL
MIC (Pseudomonas aeruginosa [11]): 0.195 µg/mL
FIC (Escherichia coli [12]): 0.06
FIC (Pseudomonas aeruginosa [13]): 0.06
MIC (Escherichia coli [14]): 0.0976 µg/mL
MIC (Pseudomonas aeruginosa [19]): 0.195 µg/mL
FIC (Escherichia coli [15]): 0.03
FIC (Pseudomonas aeruginosa [20]): 0.06

O=S(=O)(c1ccc(Cl)cc1)n1cnc2ccccc21
MIC (Bacillus cereus [1]): 25 µg/mL (≈ 85.4 µM)
MIC (Staphylococcus aureus [2]): 12.5 µg/mL (≈ 42.7 µM)
MIC (Escherichia coli [3]): 3.1 µg/mL (≈ 10.6 µM)
MIC (Pseudomonas aeruginosa [4]): 12.5 µg/mL (≈ 42.7 µM)
MIC (Escherichia coli [5]): 50 µg/mL (≈ 171 µM)
IC50 (PBMC): > 100 µM
IC50 (CCRF-CEM): > 61.7 µM
IC50 (Vero): > 100 µM
Ratio (Escherichia coli [17]): 2
MIC (Bacillus cereus [21]): 6.2 µg/mL
MIC (Staphylococcus aureus [22]): 3.1 µg/mL
MIC (Pseudomonas aeruginosa [23]): 3.1 µg/mL
FIC (Bacillus cereus [24]): 0.24
FIC (Staphylococcus aureus [25]): 0.24
FIC (Pseudomonas aeruginosa [26]): 0.24
MIC (Bacillus cereus [27]): 6.2 µg/mL
MIC (Staphylococcus aureus [28]): 3.1 µg/mL
MIC (Pseudomonas aeruginosa [8]): 3.1 µg/mL
FIC (Bacillus cereus [29]): 0.24
FIC (Staphylococcus aureus [30]): 0.12
FIC (Pseudomonas aeruginosa [9]): 0.24
MIC (Escherichia coli [10]): 0.391 µg/mL
FIC (Escherichia coli [12]): 0.12
MIC (Escherichia coli [14]): 0.0976 µg/mL
FIC (Escherichia coli [15]): 0.03

Cc1ccc(S(=O)(=O)n2cnc3ccccc32)cc1
MIC (Bacillus cereus [1]): 50 µg/mL (≈ 184 µM)
MIC (Staphylococcus aureus [2]): 25 µg/mL (≈ 91.8 µM)
MIC (Escherichia coli [3]): 6.2 µg/mL (≈ 22.8 µM)
MIC (Pseudomonas aeruginosa [4]): 25 µg/mL (≈ 91.8 µM)
MIC (Escherichia coli [5]): 50 µg/mL (≈ 184 µM)
IC50 (PBMC): > 100 µM
IC50 (CCRF-CEM): ≥ 100 µM
IC50 (Vero): > 100 µM
Ratio (Escherichia coli [31]): 2
MIC (Bacillus cereus [21]): 12.5 µg/mL
MIC (Staphylococcus aureus [22]): 12.5 µg/mL
MIC (Pseudomonas aeruginosa [23]): 6.2 µg/mL
FIC (Bacillus cereus [24]): 0.25
FIC (Staphylococcus aureus [25]): 0.5
FIC (Pseudomonas aeruginosa [26]): 0.24
MIC (Bacillus cereus [27]): 6.2 µg/mL
MIC (Staphylococcus aureus [28]): 6.2 µg/mL
MIC (Escherichia coli [32]): 3.1 µg/mL
MIC (Pseudomonas aeruginosa [8]): 6.2 µg/mL
FIC (Bacillus cereus [29]): 0.24
FIC (Staphylococcus aureus [30]): 0.49
FIC (Escherichia coli [33]): 0.5
FIC (Pseudomonas aeruginosa [9]): 0.24
MIC (Escherichia coli [10]): 0.781 µg/mL
FIC (Escherichia coli [12]): 0.12

C[C@@H]1C[C@@H]([C@H](O)CC2CC(=O)NC(=O)C2)C(=O)[C@@H](C)C1 [CYCLOHEXIMIDE]
MIC (Bacillus cereus [1]): 12.5 µg/mL (≈ 44.4 µM)
MIC (Staphylococcus aureus [2]): 12.5 µg/mL (≈ 44.4 µM)
MIC (Escherichia coli [3]): 12.5 µg/mL (≈ 44.4 µM)
MIC (Pseudomonas aeruginosa [4]): 12.5 µg/mL (≈ 44.4 µM)
MIC (Escherichia coli [5]): 50 µg/mL (≈ 178 µM)
IC50 (PBMC): 0.9 µM
IC50 (CCRF-CEM): 0.2 µM
IC50 (Vero): 0.2 µM

O=C(N[C@H](CO)[C@H](O)c1ccc([N+](=O)[O-])cc1)C(Cl)Cl [CHLORAMPHENICOL]
MIC (Bacillus cereus [1]): 6.2 µg/mL (≈ 19.2 µM)
MIC (Staphylococcus aureus [2]): 6.2 µg/mL (≈ 19.2 µM)
MIC (Escherichia coli [3]): 6.2 µg/mL (≈ 19.2 µM)
MIC (Pseudomonas aeruginosa [4]): 6.2 µg/mL (≈ 19.2 µM)
MIC (Escherichia coli [5]): 50 µg/mL (≈ 155 µM)

Cc1cc(NS(=O)(=O)c2ccc(N)cc2)no1 [SULFAMETHOXAZOLE]
MIC (Bacillus cereus [1]): 6.2 µg/mL (≈ 24.5 µM)
MIC (Staphylococcus aureus [2]): 6.2 µg/mL (≈ 24.5 µM)
MIC (Escherichia coli [3]): 3.1 µg/mL (≈ 12.2 µM)
MIC (Pseudomonas aeruginosa [4]): 3.1 µg/mL (≈ 12.2 µM)
MIC (Escherichia coli [5]): 25 µg/mL (≈ 98.7 µM)
